Laboratory results as given in patent EP0327492A1, “Herbicidally and plantgrowth regulatory active quinoline and pyrindine compounds” (CIBA-GEIGY AG, priority 1988, dated 1989).

Tests used:
Assay type in all cases: in vivo
[1] = test system: Abutilon; test: Pre-emergent herbicidal action (B.2); details: 500 bis 2000 [g/ha], evaluated after 3 weeks
How it was run: (§1)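 Soil surface in seed trays sprayed right after sowing with an aqueous dispersion made from a 25% emulsion concentrate, at 2000-500 g active substance/ha. Trays kept in greenhouse at 22-25 °C, 50-70% relative humidity. Damage scored after 3 weeks on a 1-9 scale (1 = not germinated or dead, 9 = normal growth as untreated).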

[2] = test system: Alopecurus myos.; test: Pre-emergent herbicidal action (B.2); details: 500 bis 2000 [g/ha], evaluated after 3 weeks
How it was run: as §1

[3] = test system: Amaranthus ret.; test: Pre-emergent herbicidal action (B.2); details: 500 bis 2000 [g/ha], evaluated after 3 weeks
How it was run: as §1

[4] = test system: Avena fatua; test: Pre-emergent herbicidal action (B.2); details: 500 bis 2000 [g/ha], evaluated after 3 weeks
How it was run: as §1

[5] = test system: Bromus tectorum; test: Pre-emergent herbicidal action (B.2); details: 500 bis 2000 [g/ha], evaluated after 3 weeks
How it was run: as §1

[6] = test system: Chenopodium Sp.; test: Pre-emergent herbicidal action (B.2); details: 500 bis 2000 [g/ha], evaluated after 3 weeks
How it was run: as §1

[7] = test system: Chrysanthe. leuc.; test: Pre-emergent herbicidal action (B.2); details: 500 bis 2000 [g/ha], evaluated after 3 weeks
How it was run: as §1

[8] = test system: Digitaria sang.; test: Pre-emergent herbicidal action (B.2); details: 500 bis 2000 [g/ha], evaluated after 3 weeks
How it was run: as §1

[9] = test system: Echinochloa crus galli; test: Pre-emergent herbicidal action (B.2); details: 500 bis 2000 [g/ha], evaluated after 3 weeks
How it was run: as §1

[10] = test system: Galium aparine; test: Pre-emergent herbicidal action (B.2); details: 500 bis 2000 [g/ha], evaluated after 3 weeks
How it was run: as §1

[11] = test system: Ipomoea; test: Pre-emergent herbicidal action (B.2); details: 500 bis 2000 [g/ha], evaluated after 3 weeks
How it was run: as §1

[12] = test system: Lolium perenne; test: Pre-emergent herbicidal action (B.2); details: 500 bis 2000 [g/ha], evaluated after 3 weeks
How it was run: as §1

[13] = test system: Sinapis; test: Pre-emergent herbicidal action (B.2); details: 500 bis 2000 [g/ha], evaluated after 3 weeks
How it was run: as §1

[14] = test system: Solanum nigrum; test: Pre-emergent herbicidal action (B.2); details: 500 bis 2000 [g/ha], evaluated after 3 weeks
How it was run: as §1

[15] = test system: Sorghum halep.; test: Pre-emergent herbicidal action (B.2); details: 500 bis 2000 [g/ha], evaluated after 3 weeks
How it was run: as §1

[16] = test system: Stellaria; test: Pre-emergent herbicidal action (B.2); details: 500 bis 2000 [g/ha], evaluated after 3 weeks
How it was run: as §1

[17] = test system: Veronica Sp.; test: Pre-emergent herbicidal action (B.2); details: 500 bis 2000 [g/ha], evaluated after 3 weeks
How it was run: as §1

[18] = test system: Soja; test: Pre-emergent herbicidal action (B.2), crop tolerance; details: 500 bis 2000 [g/ha], evaluated after 3 weeks
Method: (§2) Im Gewächshaus wird unmittelbar nach der Einsaat der Versuchspflanzen in Saatschalen die Erdoberfläche mit einer wässrigen Dispersion der Wirkstoffe, erhalten aus einem 25 %igen Emulsionskonzentrat behandelt. Es werden Konzentrationen von 2000-500 g Wirksubstanz/Hektar angewendet. Die Saatschalen werden im Gewächshaus bei 22-25° C und 50-70 % relativer Luftfeuchtigkeit gehalten und der Versuch nach 3 Wochen ausgewertet und die Resultate nach folgender Notenskala ausgewertet. • 1 Pflanze hat nicht gekeimt oder ist eingegangen • 2-3 sehr starke Schäden • 4 starke Schäden • 5 mittlere Schäden, die Pflanzen sind verkümmert • 6 Schäden, die Pflanze kann regenerieren • 7-8 leichte Schäden • 9 normales Wachstum, wie das unbehandelter Pflanzen
(§3) Boniturnoten von 1 bis 4 (insbesondere von 1 bis 3) weisen auf eine gute bis sehr gute Herbizidwirkung hin. Boniturnoten von 6 bis 9 (insbesondere 7 bis 9) weisen auf eine gute Toleranz (insbesondere bei Kulturpflanzen) hin.

[19] = test system: Abutilon; test: Post-emergent herbicidal action, contact herbicide (B.3); details: 500 bis 2000 [g/ha], 15 days after treatment
How it was run: (§4)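 Contact activity is rated on a 1-9 scale, lower meaning more damage, 15 days after weeds at 4-6 leaves receive a spray of 2000-500 g active ingredient/ha in water. Conditions during the test are 24-26 °C and 45-60% relative humidity.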

[20] = test system: Alopecurus myos.; test: as above; details: 500 bis 2000 [g/ha], 15 days after treatment
How it was run: as §4

[21] = test system: Amaranthus ret.; test: as above; details: 500 bis 2000 [g/ha], 15 days after treatment
How it was run: as §4

[22] = test system: Avena fatua; test: as above; details: 500 bis 2000 [g/ha], 15 days after treatment
How it was run: as §4

[23] = test system: Bromus tectorum; test: as above; details: 500 bis 2000 [g/ha], 15 days after treatment
How it was run: as §4

[24] = test system: Chenopodium Sp.; test: as above; details: 500 bis 2000 [g/ha], 15 days after treatment
How it was run: as §4

[25] = test system: Chrysanthe. leuc.; test: as above; details: 500 bis 2000 [g/ha], 15 days after treatment
How it was run: as §4

[26] = test system: Digitaria sang.; test: as above; details: 500 bis 2000 [g/ha], 15 days after treatment
How it was run: as §4

[27] = test system: Echinochloa crus galli; test: as above; details: 500 bis 2000 [g/ha], 15 days after treatment
How it was run: as §4

[28] = test system: Galium aparine; test: as above; details: 500 bis 2000 [g/ha], 15 days after treatment
How it was run: as §4

[29] = test system: Lolium perenne; test: as above; details: 500 bis 2000 [g/ha], 15 days after treatment
How it was run: as §4

[30] = test system: Sinapis; test: as above; details: 500 bis 2000 [g/ha], 15 days after treatment
How it was run: as §4

[31] = test system: Solanum nigrum; test: as above; details: 500 bis 2000 [g/ha], 15 days after treatment
How it was run: as §4

[32] = test system: Sorghum halep.; test: as above; details: 500 bis 2000 [g/ha], 15 days after treatment
How it was run: as §4

[33] = test system: Stellaria; test: as above; details: 500 bis 2000 [g/ha], 15 days after treatment
How it was run: as §4

[34] = test system: Veronica Sp.; test: as above; details: 500 bis 2000 [g/ha], 15 days after treatment
How it was run: as §4

[35] = test system: Xanthium Sp.; test: as above; details: 500 bis 2000 [g/ha], 15 days after treatment
How it was run: as §4

[36] = test system: Baumwolle; test: Post-emergent herbicidal action (B.3), crop tolerance; details: 500 bis 2000 [g/ha], 15 days after treatment
Method: as §2, §3
(§5) Eine Anzahl Unkräuter, sowohl monokotyle wie dikotyle, werden nach dem Auflaufen (im 4- bis 6-Blattstadium) mit einer wässrigen Wirkstoffdispersion in einer Dosierung von 2000-500 g Wirksubstanz pro Hektar auf die Pflanzen gespritzt und diese bei 24°-26°C und 45-60 % relativer Luftfeuchtigkeit gehalten. 15 Tage nach der Behandlung wird der Versuch nach dem in Beispiel B.2. gegebenen Massstab bewertet.

[37] = test system: Soja; test: as above; details: 500 bis 2000 [g/ha], 15 days after treatment
Method: as §2, §3, §5

In the case of `CC1CCCc2nc(C3=NC(=O)C(C)(C(C)C)N3)c(C(=O)O)cc21` (stereo not shown) [Verbindung 2.02, 2-(5-Isopropyl-5-methyl-1 H-imidazol-4-on-2-yl)-5-methyl-5,6,7,8-tetrahydrochinolin-3-carbonsäure], the Herbizidwirkung [1] was “gute bis sehr gute Herbizidwirkung (Boniturnoten von 1 bis 4 (insbesondere von 1 bis 3) weisen auf eine gute bis sehr gute Herbizidwirkung hin)”, the Herbizidwirkung [2] was “gute bis sehr gute Herbizidwirkung (Boniturnoten von 1 bis 4 (insbesondere von 1 bis 3) weisen auf eine gute bis sehr gute Herbizidwirkung hin)” and the Herbizidwirkung [3] was “gute bis sehr gute Herbizidwirkung (Boniturnoten von 1 bis 4 (insbesondere von 1 bis 3) weisen auf eine gute bis sehr gute Herbizidwirkung hin)”. The Herbizidwirkung [4] was “gute bis sehr gute Herbizidwirkung (Boniturnoten von 1 bis 4 (insbesondere von 1 bis 3) weisen auf eine gute bis sehr gute Herbizidwirkung hin)”, the Herbizidwirkung [5] was “gute bis sehr gute Herbizidwirkung (Boniturnoten von 1 bis 4 (insbesondere von 1 bis 3) weisen auf eine gute bis sehr gute Herbizidwirkung hin)” and the Herbizidwirkung [6] was “gute bis sehr gute Herbizidwirkung (Boniturnoten von 1 bis 4 (insbesondere von 1 bis 3) weisen auf eine gute bis sehr gute Herbizidwirkung hin)”. The Herbizidwirkung [7] was “gute bis sehr gute Herbizidwirkung (Boniturnoten von 1 bis 4 (insbesondere von 1 bis 3) weisen auf eine gute bis sehr gute Herbizidwirkung hin)”, the Herbizidwirkung [8] was “gute bis sehr gute Herbizidwirkung (Boniturnoten von 1 bis 4 (insbesondere von 1 bis 3) weisen auf eine gute bis sehr gute Herbizidwirkung hin)” and the Herbizidwirkung [9] was “gute bis sehr gute Herbizidwirkung (Boniturnoten von 1 bis 4 (insbesondere von 1 bis 3) weisen auf eine gute bis sehr gute Herbizidwirkung hin)”. For the same compound, the Herbizidwirkung [10] was “gute bis sehr gute Herbizidwirkung (Boniturnoten von 1 bis 4 (insbesondere von 1 bis 3) weisen auf eine gute bis sehr gute Herbizidwirkung hin)”, the Herbizidwirkung [11] was “gute bis sehr gute Herbizidwirkung (Boniturnoten von 1 bis 4 (insbesondere von 1 bis 3) weisen auf eine gute bis sehr gute Herbizidwirkung hin)” and the Herbizidwirkung [12] was “gute bis sehr gute Herbizidwirkung (Boniturnoten von 1 bis 4 (insbesondere von 1 bis 3) weisen auf eine gute bis sehr gute Herbizidwirkung hin)”. The Herbizidwirkung [13] was “gute bis sehr gute Herbizidwirkung (Boniturnoten von 1 bis 4 (insbesondere von 1 bis 3) weisen auf eine gute bis sehr gute Herbizidwirkung hin)”, the Herbizidwirkung [14] was “gute bis sehr gute Herbizidwirkung (Boniturnoten von 1 bis 4 (insbesondere von 1 bis 3) weisen auf eine gute bis sehr gute Herbizidwirkung hin)” and the Herbizidwirkung [15] was “gute bis sehr gute Herbizidwirkung (Boniturnoten von 1 bis 4 (insbesondere von 1 bis 3) weisen auf eine gute bis sehr gute Herbizidwirkung hin)”. For the same compound, the Herbizidwirkung [16] was “gute bis sehr gute Herbizidwirkung (Boniturnoten von 1 bis 4 (insbesondere von 1 bis 3) weisen auf eine gute bis sehr gute Herbizidwirkung hin)”, the Herbizidwirkung [17] was “gute bis sehr gute Herbizidwirkung (Boniturnoten von 1 bis 4 (insbesondere von 1 bis 3) weisen auf eine gute bis sehr gute Herbizidwirkung hin)” and the “Toleranz (im Wachstum beeinflusst)” value [18] was “gute Toleranz (Boniturnoten von 6 bis 9 (insbesondere 7 bis 9) weisen auf eine gute Toleranz (insbesondere bei Kulturpflanzen) hin)”. The Herbizidwirkung [19] was “gute bis sehr gute Herbizidwirkung (Boniturnoten von 1 bis 4 (insbesondere von 1 bis 3) weisen auf eine gute bis sehr gute Herbizidwirkung hin)”, the Herbizidwirkung [20] was “gute bis sehr gute Herbizidwirkung (Boniturnoten von 1 bis 4 (insbesondere von 1 bis 3) weisen auf eine gute bis sehr gute Herbizidwirkung hin)” and the Herbizidwirkung [21] was “gute bis sehr gute Herbizidwirkung (Boniturnoten von 1 bis 4 (insbesondere von 1 bis 3) weisen auf eine gute bis sehr gute Herbizidwirkung hin)”. The Herbizidwirkung [22] was “gute bis sehr gute Herbizidwirkung (Boniturnoten von 1 bis 4 (insbesondere von 1 bis 3) weisen auf eine gute bis sehr gute Herbizidwirkung hin)”, the Herbizidwirkung [23] was “gute bis sehr gute Herbizidwirkung (Boniturnoten von 1 bis 4 (insbesondere von 1 bis 3) weisen auf eine gute bis sehr gute Herbizidwirkung hin)” and the Herbizidwirkung [24] was “gute bis sehr gute Herbizidwirkung (Boniturnoten von 1 bis 4 (insbesondere von 1 bis 3) weisen auf eine gute bis sehr gute Herbizidwirkung hin)”. The Herbizidwirkung [25] was “gute bis sehr gute Herbizidwirkung (Boniturnoten von 1 bis 4 (insbesondere von 1 bis 3) weisen auf eine gute bis sehr gute Herbizidwirkung hin)”, the Herbizidwirkung [26] was “gute bis sehr gute Herbizidwirkung (Boniturnoten von 1 bis 4 (insbesondere von 1 bis 3) weisen auf eine gute bis sehr gute Herbizidwirkung hin)” and the Herbizidwirkung [27] was “gute bis sehr gute Herbizidwirkung (Boniturnoten von 1 bis 4 (insbesondere von 1 bis 3) weisen auf eine gute bis sehr gute Herbizidwirkung hin)”. For the same compound, the Herbizidwirkung [28] was “gute bis sehr gute Herbizidwirkung (Boniturnoten von 1 bis 4 (insbesondere von 1 bis 3) weisen auf eine gute bis sehr gute Herbizidwirkung hin)”, the Herbizidwirkung [29] was “gute bis sehr gute Herbizidwirkung (Boniturnoten von 1 bis 4 (insbesondere von 1 bis 3) weisen auf eine gute bis sehr gute Herbizidwirkung hin)” and the Herbizidwirkung [30] was “gute bis sehr gute Herbizidwirkung (Boniturnoten von 1 bis 4 (insbesondere von 1 bis 3) weisen auf eine gute bis sehr gute Herbizidwirkung hin)”. For the same compound, the Herbizidwirkung [31] was “gute bis sehr gute Herbizidwirkung (Boniturnoten von 1 bis 4 (insbesondere von 1 bis 3) weisen auf eine gute bis sehr gute Herbizidwirkung hin)”, the Herbizidwirkung [32] was “gute bis sehr gute Herbizidwirkung (Boniturnoten von 1 bis 4 (insbesondere von 1 bis 3) weisen auf eine gute bis sehr gute Herbizidwirkung hin)” and the Herbizidwirkung [33] was “gute bis sehr gute Herbizidwirkung (Boniturnoten von 1 bis 4 (insbesondere von 1 bis 3) weisen auf eine gute bis sehr gute Herbizidwirkung hin)”. The Herbizidwirkung [34] was “gute bis sehr gute Herbizidwirkung (Boniturnoten von 1 bis 4 (insbesondere von 1 bis 3) weisen auf eine gute bis sehr gute Herbizidwirkung hin)”, the Herbizidwirkung [35] was “gute bis sehr gute Herbizidwirkung (Boniturnoten von 1 bis 4 (insbesondere von 1 bis 3) weisen auf eine gute bis sehr gute Herbizidwirkung hin)” and the “Toleranz (im Wachstum beeinflusst)” value [36] was “gute Toleranz (Boniturnoten von 6 bis 9 (insbesondere 7 bis 9) weisen auf eine gute Toleranz (insbesondere bei Kulturpflanzen) hin)”. For the same compound, the “Toleranz (im Wachstum beeinflusst)” value [37] was “gute Toleranz (Boniturnoten von 6 bis 9 (insbesondere 7 bis 9) weisen auf eine gute Toleranz (insbesondere bei Kulturpflanzen) hin)”.
